Reference: ChEMBL document CHEMBL3853318, “Structure-Based Optimization of Potent, Selective, and Orally Bioavailable CDK8 Inhibitors Discovered by High-Throughput Screening” (J Med Chem, 2016)

How the values were obtained:
[1] = target: CDK8/Cyclin C (Homo sapiens, UniProt P49336); assay: Inhibition of Alexa647 tracer binding to full length recombinant human His-tagged CDK8/cyclin C expressed in Baculovirus expression system preincubated for 20 mins followed by tracer addition and incubated in dark for 60 mins by FRET-based Lanthascreen assay
Sequence of CDK8/Cyclin C (P49336 whole entry): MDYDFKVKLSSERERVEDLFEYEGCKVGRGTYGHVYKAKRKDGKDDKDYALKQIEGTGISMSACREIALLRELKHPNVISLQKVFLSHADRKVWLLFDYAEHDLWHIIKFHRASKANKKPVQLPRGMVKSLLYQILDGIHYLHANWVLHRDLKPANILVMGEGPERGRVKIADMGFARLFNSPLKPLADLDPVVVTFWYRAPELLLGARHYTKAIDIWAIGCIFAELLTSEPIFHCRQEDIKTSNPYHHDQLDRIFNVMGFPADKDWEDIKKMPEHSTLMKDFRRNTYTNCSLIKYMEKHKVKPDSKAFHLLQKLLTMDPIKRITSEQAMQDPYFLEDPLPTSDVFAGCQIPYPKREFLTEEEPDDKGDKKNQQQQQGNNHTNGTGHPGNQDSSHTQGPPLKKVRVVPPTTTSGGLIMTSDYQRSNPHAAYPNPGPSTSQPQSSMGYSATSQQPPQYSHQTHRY
Sequence of CDK8/Cyclin C (P24863 whole entry, further chain): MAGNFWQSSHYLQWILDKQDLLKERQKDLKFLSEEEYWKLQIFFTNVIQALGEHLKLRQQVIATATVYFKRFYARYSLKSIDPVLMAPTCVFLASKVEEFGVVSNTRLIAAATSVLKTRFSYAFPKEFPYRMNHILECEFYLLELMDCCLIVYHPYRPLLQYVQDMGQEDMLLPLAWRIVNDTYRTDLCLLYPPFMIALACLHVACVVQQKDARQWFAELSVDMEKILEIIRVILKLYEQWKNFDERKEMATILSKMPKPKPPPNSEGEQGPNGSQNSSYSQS

[2] = target: Cyclin-dependent kinase 8 (Homo sapiens, UniProt P49336); assay: Inhibition of CDK8 in human 7dF3 cells preincubated for 2 hrs followed by beta-oestradiol addition measured after 24 hrs by luciferase reporter gene assay; assay type: cell-based
Sequence of Cyclin-dependent kinase 8 (P49336 whole entry): as the sequence (P49336 whole entry) above

[3] = Intrinsic clearance in rat liver microsomes at 1 uM preincubated for 5 mins followed by NADPH addition measured after 5 to 30 mins by LC-MS/MS analysis; assay type: ADME; details: read-out: CLH
[4] = Intrinsic clearance in mouse liver microsomes at 1 uM preincubated for 5 mins followed by NADPH addition measured after 5 to 30 mins by LC-MS/MS analysis; assay type: ADME; details: read-out: CLH
[5] = Intrinsic clearance in human liver microsomes at 1 uM preincubated for 5 mins followed by NADPH addition measured after 5 to 30 mins by LC-MS/MS analysis; assay type: ADME; details: read-out: CLH
[6] = test system: 7dF3; assay: Ratio of IC50 for CDK8 in human 7dF3 cells to IC50 for Alexa647 tracer binding to full length recombinant human His-tagged CDK8/cyclin C; assay type: cell-based
[7] = target: Non-receptor tyrosine-protein kinase TYK2 (Homo sapiens, UniProt P29597); assay: Inhibition of TYK2 (unknown origin) at 1 uM relative to control
Sequence of Non-receptor tyrosine-protein kinase TYK2 (P29597 whole entry): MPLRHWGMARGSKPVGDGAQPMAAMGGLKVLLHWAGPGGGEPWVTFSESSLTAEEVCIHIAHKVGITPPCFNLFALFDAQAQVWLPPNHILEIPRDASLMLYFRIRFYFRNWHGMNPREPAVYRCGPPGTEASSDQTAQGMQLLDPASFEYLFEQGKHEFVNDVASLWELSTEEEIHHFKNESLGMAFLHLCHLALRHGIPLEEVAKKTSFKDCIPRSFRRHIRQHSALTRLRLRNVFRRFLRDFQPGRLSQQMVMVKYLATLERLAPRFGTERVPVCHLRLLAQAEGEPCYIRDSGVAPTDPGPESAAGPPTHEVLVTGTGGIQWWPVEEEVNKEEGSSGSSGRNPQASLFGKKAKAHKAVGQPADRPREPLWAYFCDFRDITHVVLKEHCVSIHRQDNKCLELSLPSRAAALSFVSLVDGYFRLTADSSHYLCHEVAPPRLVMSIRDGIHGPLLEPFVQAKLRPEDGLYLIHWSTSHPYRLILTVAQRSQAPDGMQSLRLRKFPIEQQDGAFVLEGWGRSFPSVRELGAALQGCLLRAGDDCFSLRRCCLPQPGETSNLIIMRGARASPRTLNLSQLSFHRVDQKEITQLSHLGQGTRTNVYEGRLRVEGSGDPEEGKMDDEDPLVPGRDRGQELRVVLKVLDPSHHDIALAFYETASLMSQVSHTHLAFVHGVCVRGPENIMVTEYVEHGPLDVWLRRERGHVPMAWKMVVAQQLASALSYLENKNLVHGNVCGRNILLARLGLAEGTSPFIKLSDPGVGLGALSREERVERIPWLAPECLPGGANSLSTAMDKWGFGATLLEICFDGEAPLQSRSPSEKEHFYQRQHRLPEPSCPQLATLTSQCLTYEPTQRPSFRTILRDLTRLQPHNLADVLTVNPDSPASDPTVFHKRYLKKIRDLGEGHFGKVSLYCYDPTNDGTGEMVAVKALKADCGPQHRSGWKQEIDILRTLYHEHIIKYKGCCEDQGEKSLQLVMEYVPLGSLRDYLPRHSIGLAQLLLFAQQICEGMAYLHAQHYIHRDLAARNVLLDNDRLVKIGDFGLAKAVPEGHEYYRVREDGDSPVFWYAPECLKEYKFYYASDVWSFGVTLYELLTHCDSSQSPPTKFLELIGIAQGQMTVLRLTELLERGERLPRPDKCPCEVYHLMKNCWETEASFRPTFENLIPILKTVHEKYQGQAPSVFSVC

[8] = target: Tyrosine-protein kinase JAK1 (Homo sapiens, UniProt P23458); assay: Inhibition of JAK1 (unknown origin) at 1 uM relative to control
Sequence of Tyrosine-protein kinase JAK1 (P23458 whole entry): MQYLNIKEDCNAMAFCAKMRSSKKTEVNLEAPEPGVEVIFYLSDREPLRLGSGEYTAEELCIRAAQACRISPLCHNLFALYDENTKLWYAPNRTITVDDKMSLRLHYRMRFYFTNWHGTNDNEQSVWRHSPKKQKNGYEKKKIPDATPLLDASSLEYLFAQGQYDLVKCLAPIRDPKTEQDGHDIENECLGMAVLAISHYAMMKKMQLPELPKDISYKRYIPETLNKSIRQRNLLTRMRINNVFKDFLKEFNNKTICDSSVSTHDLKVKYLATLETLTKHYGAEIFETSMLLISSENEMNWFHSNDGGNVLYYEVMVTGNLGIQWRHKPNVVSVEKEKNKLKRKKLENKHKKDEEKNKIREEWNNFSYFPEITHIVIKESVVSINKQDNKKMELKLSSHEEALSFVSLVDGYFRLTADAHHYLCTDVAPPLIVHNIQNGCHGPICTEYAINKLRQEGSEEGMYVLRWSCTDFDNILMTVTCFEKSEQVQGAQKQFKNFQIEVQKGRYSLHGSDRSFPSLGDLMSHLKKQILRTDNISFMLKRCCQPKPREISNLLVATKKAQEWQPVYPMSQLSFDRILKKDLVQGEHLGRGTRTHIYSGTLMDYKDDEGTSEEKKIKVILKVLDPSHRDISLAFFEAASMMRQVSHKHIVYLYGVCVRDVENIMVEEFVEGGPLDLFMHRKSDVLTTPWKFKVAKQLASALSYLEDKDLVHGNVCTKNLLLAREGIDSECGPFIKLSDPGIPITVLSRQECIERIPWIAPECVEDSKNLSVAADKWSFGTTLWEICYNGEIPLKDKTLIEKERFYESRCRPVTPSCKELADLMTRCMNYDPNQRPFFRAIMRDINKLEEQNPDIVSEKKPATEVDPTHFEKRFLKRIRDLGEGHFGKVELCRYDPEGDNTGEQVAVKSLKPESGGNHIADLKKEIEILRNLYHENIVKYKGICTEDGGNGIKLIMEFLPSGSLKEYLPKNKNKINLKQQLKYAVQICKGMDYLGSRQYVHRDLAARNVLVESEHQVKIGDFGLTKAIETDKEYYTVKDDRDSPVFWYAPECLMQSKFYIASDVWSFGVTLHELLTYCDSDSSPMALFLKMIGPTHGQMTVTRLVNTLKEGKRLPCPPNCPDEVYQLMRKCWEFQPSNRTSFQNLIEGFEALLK

[9] = target: Tyrosine-protein kinase JAK2 (Homo sapiens, UniProt O60674); assay: Inhibition of JAK2 (unknown origin) at 1 uM relative to control
Sequence of Tyrosine-protein kinase JAK2 (O60674 whole entry): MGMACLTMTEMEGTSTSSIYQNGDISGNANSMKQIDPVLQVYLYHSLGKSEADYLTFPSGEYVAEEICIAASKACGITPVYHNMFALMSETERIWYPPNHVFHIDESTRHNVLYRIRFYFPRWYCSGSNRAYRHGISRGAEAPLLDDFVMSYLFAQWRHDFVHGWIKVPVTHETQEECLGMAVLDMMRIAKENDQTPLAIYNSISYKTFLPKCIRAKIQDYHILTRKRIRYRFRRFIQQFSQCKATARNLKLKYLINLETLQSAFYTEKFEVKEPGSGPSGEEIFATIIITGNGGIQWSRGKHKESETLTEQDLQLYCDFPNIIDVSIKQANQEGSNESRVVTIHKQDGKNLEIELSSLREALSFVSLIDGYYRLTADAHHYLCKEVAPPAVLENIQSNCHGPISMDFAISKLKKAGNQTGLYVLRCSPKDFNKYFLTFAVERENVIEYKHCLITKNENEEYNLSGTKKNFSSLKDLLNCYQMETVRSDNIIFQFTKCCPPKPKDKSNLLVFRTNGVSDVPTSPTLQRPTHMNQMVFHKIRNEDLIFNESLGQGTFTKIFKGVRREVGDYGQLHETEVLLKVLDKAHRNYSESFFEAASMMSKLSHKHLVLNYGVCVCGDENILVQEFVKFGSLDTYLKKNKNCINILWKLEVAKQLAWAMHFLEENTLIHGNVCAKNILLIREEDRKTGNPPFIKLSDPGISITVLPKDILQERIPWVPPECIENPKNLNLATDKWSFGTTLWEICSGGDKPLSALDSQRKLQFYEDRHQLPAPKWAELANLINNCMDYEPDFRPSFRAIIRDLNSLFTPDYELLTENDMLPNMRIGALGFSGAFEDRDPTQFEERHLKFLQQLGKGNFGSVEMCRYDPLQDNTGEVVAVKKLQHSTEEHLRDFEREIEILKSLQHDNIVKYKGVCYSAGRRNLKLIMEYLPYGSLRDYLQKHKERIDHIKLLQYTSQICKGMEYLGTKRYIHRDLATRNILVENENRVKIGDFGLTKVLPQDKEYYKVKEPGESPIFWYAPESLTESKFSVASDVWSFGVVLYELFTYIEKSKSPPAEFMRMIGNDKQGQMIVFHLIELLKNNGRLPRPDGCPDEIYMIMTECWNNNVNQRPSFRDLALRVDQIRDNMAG

[10] = target: Rho-associated protein kinase 2 (Homo sapiens, UniProt O75116); assay: Inhibition of ROCK-2 (unknown origin) at 1 uM relative to control
[11] = target: T1, Tyrosine-protein kinase JAK3 (Homo sapiens) (UniProt P52333); assay: Inhibition of JAK3 (unknown origin) at 1 uM relative to control
T1 sequence (whole entry): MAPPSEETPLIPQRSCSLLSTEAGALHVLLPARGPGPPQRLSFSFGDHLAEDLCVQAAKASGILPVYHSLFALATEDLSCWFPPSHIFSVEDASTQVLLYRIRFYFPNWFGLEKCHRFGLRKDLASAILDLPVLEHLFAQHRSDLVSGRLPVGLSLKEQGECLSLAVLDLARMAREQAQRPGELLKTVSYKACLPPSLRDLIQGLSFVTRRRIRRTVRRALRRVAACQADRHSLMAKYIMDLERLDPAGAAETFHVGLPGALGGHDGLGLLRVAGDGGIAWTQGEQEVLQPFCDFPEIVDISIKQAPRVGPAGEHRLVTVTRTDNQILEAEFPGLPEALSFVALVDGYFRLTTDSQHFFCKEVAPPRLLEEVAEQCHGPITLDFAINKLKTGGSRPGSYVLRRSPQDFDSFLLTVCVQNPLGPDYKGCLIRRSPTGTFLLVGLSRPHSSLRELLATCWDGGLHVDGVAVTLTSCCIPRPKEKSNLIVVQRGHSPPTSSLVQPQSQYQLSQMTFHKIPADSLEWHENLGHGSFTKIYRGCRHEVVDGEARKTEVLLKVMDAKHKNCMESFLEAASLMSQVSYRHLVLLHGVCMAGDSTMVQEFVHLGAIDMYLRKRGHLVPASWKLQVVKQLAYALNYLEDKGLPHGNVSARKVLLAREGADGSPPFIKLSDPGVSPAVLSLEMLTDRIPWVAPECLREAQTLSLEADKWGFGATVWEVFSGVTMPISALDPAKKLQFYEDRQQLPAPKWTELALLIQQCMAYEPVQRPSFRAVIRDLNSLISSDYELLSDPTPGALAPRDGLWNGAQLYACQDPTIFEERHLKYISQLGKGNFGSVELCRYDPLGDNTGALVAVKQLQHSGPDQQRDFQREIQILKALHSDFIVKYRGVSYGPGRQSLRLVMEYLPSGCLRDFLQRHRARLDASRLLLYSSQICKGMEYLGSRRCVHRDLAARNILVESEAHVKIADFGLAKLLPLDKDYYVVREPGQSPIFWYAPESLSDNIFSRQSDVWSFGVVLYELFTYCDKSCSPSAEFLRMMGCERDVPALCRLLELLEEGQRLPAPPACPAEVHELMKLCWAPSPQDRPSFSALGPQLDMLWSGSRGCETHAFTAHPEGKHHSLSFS

Row | SMILES | IC50 [1] [nM] | IC50 [2] [nM] | microsomal CLint at 1 µM [3] [µL/min/mg] | microsomal CLint at 1 µM [4] [µL/min/mg] | microsomal CLint at 1 µM [5] [µL/min/mg] | Ratio IC50 [6] | inhibition [7] [%] | inhibition [8] [%] | inhibition [9] [%] | inhibition [10] [%] | inhibition [11] [%]
1 | Cc1n[nH]c2ccc(C(=O)N3CCN(C)CC3c3ccc(Cl)cc3)cc12 (configuration not stated) | 15 | 230 | 40 | 63 | 135 |  |  |  |  |  | 
2 | O=C(c1ccc2[nH]ncc2c1)N1CCC[C@H]1c1ccc(Cl)cc1 | 32 | 100 | 94 | 86 | 354 |  |  |  |  |  | 
3 | CCOc1ccccc1CNC(=O)c1nn2c(C)ncc2s1 | 129 | 1650 | 435 | 119 | > 1000 | 3 |  |  |  |  | 
4 | Cc1ncc2sc(C(=O)N3CCCC3c3ccccc3)nn12 (configuration not stated) | 77 | 415 | 446 | 145 | 56 | 3 |  |  |  |  | 
5 | Nc1n[nH]c2ccc(C(=O)N3CCC[C@H]3c3ccc(Br)cc3)cc12 | 3.1 | 19 | < 10 | 14 | < 10 |  | 76 | 88 | 88 | 65 | 76
6 | Cc1ncc2sc(C(=O)N3CCCC3c3ccc(Cl)cc3)nn12 (configuration not stated) | 17 | 100 | 719 | 388 | 52 |  |  |  |  |  | 
7 | Cc1n[nH]c2ccc(C(=O)N3CC[C@H]3c3ccc(Cl)cc3)cc12 | 1.7 | 2 | 62 | 113 | 908 |  |  |  |  |  | 
8 | Cc1n[nH]c2ccc(C(=O)N3CCOCC3c3ccc(Cl)cc3)cc12 (configuration not stated) | 8.5 | 115 | 44 | 29 | 135 |  |  |  |  |  | 
9 | Cc1n[nH]c2ccc(C(=O)N3CCC[C@H]3c3ccc(Cl)cc3)nc12 | 1.3 | 2.8 | 69 | 29 | 100 |  |  |  |  |  | 
10 | Nc1n[nH]c2ccc(C(=O)N3CCCC[C@H]3c3ccc(F)cc3)cc12 | 45 | 800 | 15 | 28 | < 10 |  | 17 | 21 | -2 | 22 | 
11 | Cc1n[nH]c2cnc(C(=O)N3CCC[C@H]3c3ccc(Cl)cc3)cc12 | 11 | 125 | 70 | 61 | 206 |  |  |  |  |  | 
12 | Nc1n[nH]c2ccc(C(=O)N3CCC[C@H]3c3ccc(F)cc3)cc12 | 32 | 120 | < 10 | < 10 | < 10 |  | 62 | 72 | 59 | 27 | 58
13 | Cc1ncc2sc(C(=O)N3CCCC3c3ccc(F)cc3)nn12 (configuration not stated) | 60 | 290 | 280 | 129 | 38 | 3 |  |  |  |  | 
14 | Cc1n[nH]c2ccc(C(=O)N3CCC[C@H]3c3ccc(Cl)cc3)cc12 | 1.4 | 0.6 | 79 | 244 | 525 |  |  |  |  |  | 
15 | Nc1n[nH]c2ccc(C(=O)N3CC[C@@H](c4ccc(Cl)cc4)C3)cc12 | 24 | 150 | 26 | 19 | < 10 |  | 23 | 24 |  | 20 | 15
16 | Cc1nnc2ccc(C(=O)N3CCC[C@H]3c3ccc(Cl)cc3)cn12 | 3990 | > 10000 | 19 | 18 | < 10 |  |  |  |  |  | 
17 | CNc1n[nH]c2ccc(C(=O)N3CCC[C@H]3c3ccc(Cl)cc3)cc12 | 5.4 | 12 | 28 | 31 | 18 |  | 32 | 34 | 34 | 17 | 37
18 | Cc1ncc2ccc(C(=O)N3CCC[C@H]3c3ccc(Cl)cc3)cn12 | 9 | 90 | 108 | 63 | 390 |  |  |  |  |  | 
19 | Nc1n[nH]c2ccc(C(=O)N3CC[C@H]3c3ccc(F)cc3)cc12 | 49 | 435 | < 10 | 10 | 10 |  | 45 | 63 | 24 | 12 | 21
20 | Cc1ncc2sc(C(=O)N3CCC[C@H]3c3ccc(Cl)cc3)nn12 | 3.8 | 70 | 655 | 447 | 49 |  |  |  |  |  | 
21 | CCOc1ccccc1C(C)NC(=O)c1nn2c(C)ncc2s1 (configuration not stated) | 781 | 2450 | 38 | > 1000 | 61 | 3 |  |  |  |  | 
22 | Cc1ncc2sc(C(=O)N3CCC[C@@H]3c3ccc(Cl)cc3)nn12 | 110 | 1600 | 449 | 514 | 60 |  |  |  |  |  | 
